“And” between values parts separate entries of the source, which are not always exact repeats. Identical values can stand only once.
Columns and labels:
MOLM-14 cells [1] = assay: Quantification of intracellular drug concentration by LC-MS; assay type: in vitro ADME; settings: for Intracellular concentration: Concentration of compound, AVE / intracellular amount, AVE / intracellular amount / Intracellular concentration: Concentration of compound: 200 nM; for Intracellular concentration: Concentration of compound, AVE / intracellular amount, AVE: average of 3 replicates; for intracellular amount: initial amount 0.4000 nmol; for Intracellular concentration: Concentration of compound: sample volume 400 µL
Method: MOLM-14 cells were seeded at a density of 0.5 × 10^6 per mL in 2 mL medium. […] The samples were immediately centrifuged at 12,000 × g for 15 min at 4 °C, then removing the supernatant. In all, 400 μL of NP-40 lysis buffer was added to the cell pellet and mixed thoroughly. The mixtures were rocked for 1 h at 4 °C and centrifuged at 12,000 × g for 15 min at 4 °C. Then the supernatant was transferred to new EP tubes. In total, 20 µL supernatant was extracted with 180 µL of acetonitrile (containing internal standard: 250 nM of RNC-Ctrl) and centrifuged at the same conditions described above. Take 75 μL of supernatant for liquid chromatography-mass spectrometry analysis.
The mass spectrometer was operated in positive SIM ion mode (fragmentor 120 V; cycle time 0.6 s/cycle; Agilent Technologies 6130 Quadrupole LC/MS).

MOLM-14 cells [2] = assay: Quantitative multiplexed (TMT) proteomics of compound-treated cells; assay type: cell-based, Homo sapiens; settings: 200 nM, 24 h
Method: For proteomic study of the cellular protein profile following BTK degradation, MOLM-14 cells were treated in duplicate with 200 nM of RC-1, RNC-1, IRC-1, or RC-1-Me for 24 h, and then the cells were collected and processed for proteomics analysis (Sanford Burnham Prebys Medical Discovery Institute, La Jolla, California).
For cell lysis and protein digestion, cells were lysed with vigorous shaking (20 Hz for 10 min at room temperature by Retsch MM301 instrument) in 0.5 mL of lysis buffer (8 M urea, 50 mM ammonium bicarbonate (ABC); plus Benzonase 24U/100 ml), and extracted proteins were centrifuged at 14,000 × g for 10 min to remove cellular debris. Supernatant protein concentration was determined using a bicinchoninic acid (BCA) protein assay. Following quantification, the proteins were digested in solution. First, protein disulfide bonds were reduced with 5 mM tris(2-carboxyethyl)phosphine (TCEP) at 30 °C for 60 min, alkylated (carbamidomethylated) with 15 mM iodoacetamide (IAA) in the dark at room temperature for 30 min. Urea was then diluted to 1 M urea using 50 mM ammonium bicarbonate, and proteins were subjected to overnight digestion with mass spec grade Trypsin/Lys-C mix. Following digestion, samples were acidified with formic acid (FA) and subsequently desalted using Waters Sep-Pak C18. Cartridges were sequentially conditioned with 100% acetonitrile (ACN) and 0.1% FA, samples were then loaded, washed with 0.1% FA, and peptides eluted with 60% ACN, 0.1% FA. Finally, the organic solvent was removed in a SpeedVac concentrator prior to LC-MS/MS analysis.
Prior to TMT labeling, sample peptide amount was quantified using a NanoDrop^TM spectrophotometer (ThermoFisher). Samples were labeled according to the table schematic shown below using our TMT protocol. Briefly, a normalized amount of peptides sample was resuspended in 200 mM HEPES pH 8, and then labeled with one of the TMT10-plex reagents for 1 h at room temperature. TMT labels/channels were as follows:
Reactions were quenched with 5% hydroxylamine solution. The 10 samples were then combined, dried down in a SpeedVac system, resuspended in 0.1% FA, and desalted as described above. After desalting, the organic solvent was removed in a SpeedVac concentrator.
Dried samples were reconstituted in 20 mM ammonium formate pH ~10, and fractionated by high pH reverse phase using a Waters Acquity CSH C18 2.1-µm 1 × 150 mm column mounted on an M-Class Ultra Performance Liquid Chromatography (UPLC) system (Waters corp., Milford, MA). […] A total of 36 fractions were collected and pooled in a non-contiguous manner into 18 total fractions: 1 + 19, 2 + 20, 3 + 21, 4 + 22, 5 + 23, 6 + 24, 7 + 25, 8 + 26, 9 + 27, 10 + 28, 11 + 29, 12 + 30, 13 + 31, 14 + 32, 15 + 33, 16 + 34, 17 + 35, and 18 + 36. Pooled fractions were dried to completeness in a SpeedVac concentrator.
Dried fractions were reconstituted with 2% ACN-0.1% FA and analyzed by LC-MS/MS using a nanoACQUITY system (Waters) coupled to an Orbitrap Fusion Lumos mass spectrometer (Thermo Fisher Scientific). […] The mass spectrometer was operated in positive data-dependent acquisition mode. MS1 spectra were measured in the Orbitrap with a resolution of 60,000 (AGC target: 4e5; maximum injection time: 50 ms; mass range: from 350 to 1500 m/z). The instrument was set to run in top speed mode with 3 s cycles for the survey and the MS/MS scans. After a survey scan, tandem MS was performed in the Ion Routing Multipole HCD-Cell on the most abundant precursors by isolating them in the quadrupole (Isolation window: 0.7 m/z; charge state: +2–7; collision energy: 35%). […] The dynamic exclusion was set to 20 s with a 10-ppm mass tolerance around the precursor and its isotopes.
For data analysis, all mass spectra were analyzed with MaxQuant software version 1.5.5.1. MS/MS spectra were searched against the Homo sapiens Uniprot protein sequence database (version January 2018) and GPM cRAP sequences (commonly known protein contaminants). […]

- Intracellular concentration: Concentration of compound, AVE (MOLM-14 cells [1]; 5 min): 0.0785 µM
- intracellular amount, AVE (MOLM-14 cells [1]; 5 min): 0.0314 nmol
- Intracellular concentration: Concentration of compound (MOLM-14 cells [1]; 5 min, single replicates): 0.0713 µM and 0.0812 µM and 0.0831 µM
- Intracellular concentration: Concentration of compound, AVE (MOLM-14 cells [1]; 15 min): 0.0779 µM
- intracellular amount, AVE (MOLM-14 cells [1]; 15 min): 0.0311 nmol
- Intracellular concentration: Concentration of compound (MOLM-14 cells [1]; 15 min, single replicates): 0.0767 µM and 0.0806 µM and 0.0763 µM
- Intracellular concentration: Concentration of compound, AVE (MOLM-14 cells [1]; 30 min): 0.0702 µM
- intracellular amount, AVE (MOLM-14 cells [1]; 30 min): 0.0281 nmol
- Intracellular concentration: Concentration of compound (MOLM-14 cells [1]; 30 min, single replicates): 0.0648 µM and 0.0740 µM and 0.0719 µM
- Intracellular concentration: Concentration of compound, AVE (MOLM-14 cells [1]; 60 min): 0.0651 µM
- intracellular amount, AVE (MOLM-14 cells [1]; 60 min): 0.0260 nmol
- Intracellular concentration: Concentration of compound (MOLM-14 cells [1]; 60 min, single replicates): 0.0686 µM and 0.0666 µM and 0.0601 µM
- Intracellular concentration: Concentration of compound, AVE (MOLM-14 cells [1]; 90 min): 0.0717 µM
- intracellular amount, AVE (MOLM-14 cells [1]; 90 min): 0.0287 nmol
- Intracellular concentration: Concentration of compound (MOLM-14 cells [1]; 90 min, single replicates): 0.0688 µM and 0.0725 µM and 0.0738 µM
- Intracellular concentration: Concentration of compound, AVE (MOLM-14 cells [1]; 120 min): 0.0652 µM
- intracellular amount, AVE (MOLM-14 cells [1]; 120 min): 0.0261 nmol
- Intracellular concentration: Concentration of compound (MOLM-14 cells [1]; 120 min, single replicates): 0.0598 µM and 0.0703 µM and 0.0653 µM
- Intracellular concentration: Concentration of compound, AVE (MOLM-14 cells [1]; 240 min): 0.0595 µM
- intracellular amount, AVE (MOLM-14 cells [1]; 240 min): 0.0238 nmol
- Intracellular concentration: Concentration of compound (MOLM-14 cells [1]; 240 min, single replicates): 0.0571 µM and 0.0598 µM and 0.0616 µM
- Cellular concentration (MOLM-14 cells [1]; 5 min, Mean): 0.0314 nmol/million cells
- Cellular concentration (MOLM-14 cells [1]; 15 min, Mean): 0.0311 nmol/million cells
- Cellular concentration (MOLM-14 cells [1]; 30 min, Mean): 0.0281 nmol/million cells
- Cellular concentration (MOLM-14 cells [1]; 90 min, Mean): 0.0287 nmol/million cells
- Cellular concentration (MOLM-14 cells [1]; 120 min, Mean): 0.0261 nmol/million cells
- Cellular concentration (MOLM-14 cells [1]; 240 min, Mean): 0.0238 nmol/million cells
Compound: CN(CC=CC(=O)N1CCCC(n2nc(-c3ccc(Oc4ccccc4)cc3)c3c(N)ncnc32)C1)CCCNC(=O)CNc1cccc2c1C(=O)N(C1CCC(=O)NC1=O)C2=O (centres unmarked) [IRC-1]
- intracellular amount (MOLM-14 cells [1]; 5 min, single replicates): 0.0285 nmol and 0.0325 nmol and 0.0332 nmol
- intracellular amount (MOLM-14 cells [1]; 15 min, single replicates): 0.0307 nmol and 0.0322 nmol and 0.0305 nmol
- intracellular amount (MOLM-14 cells [1]; 30 min, single replicates): 0.0259 nmol and 0.0296 nmol and 0.0288 nmol
- intracellular amount (MOLM-14 cells [1]; 60 min, single replicates): 0.0274 nmol and 0.0266 nmol and 0.0240 nmol
- intracellular amount (MOLM-14 cells [1]; 90 min, single replicates): 0.0275 nmol and 0.0290 nmol and 0.0295 nmol
- intracellular amount (MOLM-14 cells [1]; 120 min, single replicates): 0.0239 nmol and 0.0281 nmol and 0.0261 nmol
- intracellular amount (MOLM-14 cells [1]; 240 min, single replicates): 0.0228 nmol and 0.0239 nmol and 0.0246 nmol
- Cellular concentration (MOLM-14 cells [1]; 5 min, single replicates, MOLM-14, 200 nM): 0.0285 nmol/million cells and 0.0325 nmol/million cells and 0.0332 nmol/million cells
- Cellular concentration (MOLM-14 cells [1]; 15 min, single replicates, MOLM-14, 200 nM): 0.0307 nmol/million cells and 0.0322 nmol/million cells and 0.0305 nmol/million cells
- Cellular concentration (MOLM-14 cells [1]; 30 min, single replicates, MOLM-14, 200 nM): 0.0259 nmol/million cells and 0.0296 nmol/million cells and 0.0288 nmol/million cells
- Cellular concentration (MOLM-14 cells [1]; 60 min, Mean): 0.0260 nmol/million cells and 0.026 nmol/million cells
- Cellular concentration (MOLM-14 cells [1]; 60 min, single replicates, MOLM-14, 200 nM): 0.0240 nmol/million cells and 0.0274 nmol/million cells and 0.0266 nmol/million cells and 0.024 nmol/million cells
- Cellular concentration (MOLM-14 cells [1]; 90 min, single replicates, MOLM-14, 200 nM): 0.0290 nmol/million cells and 0.0275 nmol/million cells and 0.029 nmol/million cells and 0.0295 nmol/million cells
- Cellular concentration (MOLM-14 cells [1]; 120 min, single replicates, MOLM-14, 200 nM): 0.0239 nmol/million cells and 0.0281 nmol/million cells and 0.0261 nmol/million cells
- Cellular concentration (MOLM-14 cells [1]; 240 min, single replicates, MOLM-14, 200 nM): 0.0228 nmol/million cells and 0.0239 nmol/million cells and 0.0246 nmol/million cells
- degradation of IMiD-dependent substrates IKZF1, ZFP91, ZNF692 (MOLM-14 cells [2]): specifically degraded
- kinases degraded (proteomics) (MOLM-14 cells [2]): 7
